The source of these data is ChEMBL document CHEMBL1125497, “Synthesis and anticonvulsant activity of enaminones” (J Med Chem, 1992).

Format in all cases: functional, Mus musculus
A short description of test [1]: Antiepileptic activity in male CF1 mice 30 min after administration measured in subcutaneous pentylenetetrazole (scMet) test at a dose of 100 mg/kg (no. of animals treated /protected); activity value is 1/1.
Test [2] in a line: Antiepileptic activity in male CF1 mice 4 hr after administration measured in maximum electroshock seizure(MES) test at a dose of 100 mg/kg (no. of animals treated /protected); activity value is 0/3.
Test [3] in a line: Antiepileptic activity in male CF1 mice 30 min after administration measured in maximum electroshock seizure(MES) test at a dose of 100 mg/kg (no. of animals treated /protected); activity value is 0/3.
Test [4] is described as follows: Antiepileptic activity in male CF1 mice 30 min after administration measured in neurological toxicity (Tox) test at a dose of 100 mg/kg (no. of animals treated /protected); activity value is 0/4.
Test [5] in a line: Antiepileptic activity in male CF1 mice 4 hr after administration measured in neurological toxicity (Tox) test at a dose of 100 mg/kg (no. of animals treated /protected); activity value is 0/2.
A short description of test [6]: Antiepileptic activity in male CF1 mice 4 hr after administration measured in subcutaneous pentylenetetrazole (scMet) test at a dose of 100 mg/kg (no. of animals treated /protected); activity value is 0/1.
The nature of test [7]: Antiepileptic activity in male CF1 mice 30 min after administration measured in subcutaneous pentylenetetrazole (scMet) test at a dose of 300 mg/kg (no. of animals treated /protected); activity value is 1/1.
Test [8] in a line: Antiepileptic activity in male CF1 mice 30 min after administration measured in maximum electroshock seizure(MES) test at a dose of 300 mg/kg (no. of animals treated /protected); activity value is 1/1.
The nature of test [9]: Antiepileptic activity in male CF1 mice 4 hr after administration measured in maximum electroshock seizure(MES) test at a dose of 300 mg/kg (no. of animals treated /protected); activity value is 1/1.
Test [10] can be described thus: Antiepileptic activity in male CF1 mice 4 hr after administration measured in neurological toxicity (Tox) test at a dose of 300 mg/kg (no. of animals treated /protected); activity value is 0/2.
Test [11] in a line: Antiepileptic activity in male CF1 mice 4 hr after administration measured in subcutaneous pentylenetetrazole (scMet) test at a dose of 300 mg/kg; activity value is 0/1.
A short description of test [12]: Dose at which anticonvulsant activity was observed in mice.
Test [13] can be described thus: Antiepileptic activity in male CF1 mice 30 min after administration measured in neurological toxicity (Tox) test at a dose of 300 mg/kg (no. of animals treated /protected); activity value is 0/4.

On to `COC(=O)C1C(=O)C=C(Nc2ccc([N+](=O)[O-])cc2)CC1C` (stereo not drawn), for which the Activity in test [1] was 1; in [2], 0; in test [3], 0; in test [4], 0; in [5], 0; in [6] it was 0.
Turning to `COC(=O)C1C(=O)C=C(NCc2ccc(Cl)cc2)CC1C` (stereo not drawn), the Activity in test [7] is given as 1; in [8], 1; in test [9] it was 1; in [10], 0; in [11] it was 0; in test [13], 0. For the same compound, the Dose in test [12] is above 100 mg/kg.
